{"source": "ChEMBL document CHEMBL3885881", "about": "“DrugMatrix”", "species": "Rattus norvegicus", "assay_type": "toxicity, organism-based, Sprague-Dawley", "conditions": "in vivo, po, 24 h, route oral GAVAGE, time 1 day, vehicle .5 % CMC; for ABSOLUTE EOSINOPHIL / ABSOLUTE LYMPHOCYTE / ABSOLUTE MONOCYTE / ABSOLUTE SEGMENTED NEUTROPHIL / BASOPHIL / EOSINOPHIL / ERYTHROCYTE COUNT / HEMATOCRIT / HEMOGLOBIN / LEUKOCYTE COUNT / LYMPHOCYTE / MEAN CORPUSCULAR HEMOGLOBIN / MEAN CORPUSCULAR HEMOGLOBIN CONCENTRATION / MEAN CORPUSCULAR VOLUME / MONOCYTE / NEUTROPHIL / NUCLEATED RED BLOOD CELLS / PLATELET COUNT: tissue Blood; for ALANINE AMINOTRANSFERASE / ALBUMIN / ALKALINE PHOSPHATASE / ASPARTATE AMINOTRANSFERASE / BLOOD UREA NITROGEN / CARBON DIOXIDE / CHLORIDE / CHOLESTEROL / CREATININE / GLUCOSE / LACTATE DEHYDROGENASE / LIPASE / PHOSPHORUS / POTASSIUM / SODIUM / TOTAL BILIRUBIN / TOTAL PROTEIN / URIC ACID: tissue Plasma", "key": {"[1]": {"conditions": "0 mg/kg, vehicle control, dose level Control"}}, "description": "DrugMatrix - Regimen: Single"}
{"smiles": "ClC(Cl)Br", "note": "[BROMODICHLOROMETHANE]", "values": [{"measurement": "ABSOLUTE EOSINOPHIL", "setting": "[1]", "value": 150, "unit": "CELLS/uL"}, {"measurement": "ABSOLUTE LYMPHOCYTE", "setting": "[1]", "value": 13279.83, "unit": "CELLS/uL"}, {"measurement": "ABSOLUTE MONOCYTE", "setting": "[1]", "value": 654.5, "unit": "CELLS/uL"}, {"measurement": "ABSOLUTE SEGMENTED NEUTROPHIL", "setting": "[1]", "value": 1565.67, "unit": "CELLS/uL"}, {"measurement": "BASOPHIL", "setting": "[1]", "value": 0, "unit": "%"}, {"measurement": "EOSINOPHIL", "setting": "[1]", "value": 1, "unit": "%"}, {"measurement": "ERYTHROCYTE COUNT", "setting": "[1]", "value": 5.36, "unit": "x10E6/uL"}, {"measurement": "HEMATOCRIT", "setting": "[1]", "value": 33.37, "unit": "%"}, {"measurement": "HEMOGLOBIN", "setting": "[1]", "value": 12.52, "unit": "G/DL"}, {"measurement": "LEUKOCYTE COUNT", "setting": "[1]", "value": 15.65, "unit": "x10E3/uL"}, {"measurement": "LYMPHOCYTE", "setting": "[1]", "value": 84.83, "unit": "%"}, {"measurement": "MEAN CORPUSCULAR HEMOGLOBIN", "setting": "[1]", "value": 23.4, "unit": "pg"}, {"measurement": "MEAN CORPUSCULAR HEMOGLOBIN CONCENTRATION", "setting": "[1]", "value": 37.52, "unit": "G/DL"}, {"measurement": "MEAN CORPUSCULAR VOLUME", "setting": "[1]", "value": 62.32, "unit": "fL"}, {"measurement": "MONOCYTE", "setting": "[1]", "value": 4.17, "unit": "%"}, {"measurement": "NEUTROPHIL", "setting": "[1]", "value": 10, "unit": "%"}, {"measurement": "NUCLEATED RED BLOOD CELLS", "setting": "[1]", "value": "0 /100WBC"}, {"measurement": "PLATELET COUNT", "setting": "[1]", "value": 1020, "unit": "x10E3/uL"}, {"measurement": "ALANINE AMINOTRANSFERASE", "setting": "[1]", "value": 49, "unit": "u/L"}, {"measurement": "ALBUMIN", "setting": "[1]", "value": 4.47, "unit": "G/DL"}, {"measurement": "ALKALINE PHOSPHATASE", "setting": "[1]", "value": 361.17, "unit": "u/L"}, {"measurement": "ASPARTATE AMINOTRANSFERASE", "setting": "[1]", "value": 78.67, "unit": "u/L"}, {"measurement": "BLOOD UREA NITROGEN", "setting": "[1]", "value": 13.17, "unit": "mg/dL"}, {"measurement": "CARBON DIOXIDE", "setting": "[1]", "value": 29.67, "unit": "mmol/L"}, {"measurement": "CHLORIDE", "setting": "[1]", "value": 100.83, "unit": "MEQ/L"}, {"measurement": "CHOLESTEROL", "setting": "[1]", "value": 82.17, "unit": "mg/dL"}, {"measurement": "CREATININE", "setting": "[1]", "value": 0.15, "unit": "mg/dL"}, {"measurement": "GLUCOSE", "setting": "[1]", "value": 150.83, "unit": "mg/dL"}, {"measurement": "LACTATE DEHYDROGENASE", "setting": "[1]", "value": 239.17, "unit": "u/L"}, {"measurement": "LIPASE", "setting": "[1]", "value": 7.83, "unit": "u/L"}, {"measurement": "PHOSPHORUS", "setting": "[1]", "value": 13.82, "unit": "mg/dL"}, {"measurement": "POTASSIUM", "setting": "[1]", "value": 6.62, "unit": "MEQ/L"}, {"measurement": "SODIUM", "setting": "[1]", "value": 144.25, "unit": "MEQ/L"}, {"measurement": "TOTAL BILIRUBIN", "setting": "[1]", "value": 0.15, "unit": "mg/dL"}, {"measurement": "TOTAL PROTEIN", "setting": "[1]", "value": 6.2, "unit": "G/DL"}, {"measurement": "URIC ACID", "setting": "[1]", "value": 1.57, "unit": "mg/dL"}, {"measurement": "ABSOLUTE EOSINOPHIL", "setting": "430 mg/kg, dose level High", "value": 41.33, "unit": "CELLS/uL"}, {"measurement": "ABSOLUTE LYMPHOCYTE", "setting": "430 mg/kg, dose level High", "value": 10502.67, "unit": "CELLS/uL"}, {"measurement": "ABSOLUTE MONOCYTE", "setting": "430 mg/kg, dose level High", "value": 677, "unit": "CELLS/uL"}, {"measurement": "ABSOLUTE SEGMENTED NEUTROPHIL", "setting": "430 mg/kg, dose level High", "value": 1645.67, "unit": "CELLS/uL"}, {"measurement": "BASOPHIL", "setting": "430 mg/kg, dose level High", "value": 0, "unit": "%"}, {"measurement": "EOSINOPHIL", "setting": "430 mg/kg, dose level High", "value": 0.33, "unit": "%"}, {"measurement": "ERYTHROCYTE COUNT", "setting": "430 mg/kg, dose level High", "value": 6.1, "unit": "x10E6/uL"}, {"measurement": "HEMATOCRIT", "setting": "430 mg/kg, dose level High", "value": 36.03, "unit": "%"}, {"measurement": "HEMOGLOBIN", "setting": "430 mg/kg, dose level High", "value": 13.4, "unit": "G/DL"}, {"measurement": "LEUKOCYTE COUNT", "setting": "430 mg/kg, dose level High", "value": 12.87, "unit": "x10E3/uL"}, {"measurement": "LYMPHOCYTE", "setting": "430 mg/kg, dose level High", "value": 81.67, "unit": "%"}, {"measurement": "MEAN CORPUSCULAR HEMOGLOBIN", "setting": "430 mg/kg, dose level High", "value": 21.97, "unit": "pg"}, {"measurement": "MEAN CORPUSCULAR HEMOGLOBIN CONCENTRATION", "setting": "430 mg/kg, dose level High", "value": 37.2, "unit": "G/DL"}, {"measurement": "MEAN CORPUSCULAR VOLUME", "setting": "430 mg/kg, dose level High", "value": 59.07, "unit": "fL"}, {"measurement": "MONOCYTE", "setting": "430 mg/kg, dose level High", "value": 5.33, "unit": "%"}, {"measurement": "NEUTROPHIL", "setting": "430 mg/kg, dose level High", "value": 12.67, "unit": "%"}, {"measurement": "NUCLEATED RED BLOOD CELLS", "setting": "430 mg/kg, dose level High", "value": "0 /100WBC"}, {"measurement": "PLATELET COUNT", "setting": "430 mg/kg, dose level High", "value": 1251, "unit": "x10E3/uL"}, {"measurement": "ALANINE AMINOTRANSFERASE", "setting": "430 mg/kg, dose level High", "value": 62, "unit": "u/L"}, {"measurement": "ALBUMIN", "setting": "430 mg/kg, dose level High", "value": 4.77, "unit": "G/DL"}, {"measurement": "ALKALINE PHOSPHATASE", "setting": "430 mg/kg, dose level High", "value": 394.67, "unit": "u/L"}, {"measurement": "ASPARTATE AMINOTRANSFERASE", "setting": "430 mg/kg, dose level High", "value": 108, "unit": "u/L"}, {"measurement": "BLOOD UREA NITROGEN", "setting": "430 mg/kg, dose level High", "value": 16.33, "unit": "mg/dL"}, {"measurement": "CARBON DIOXIDE", "setting": "430 mg/kg, dose level High", "value": 25, "unit": "mmol/L"}, {"measurement": "CHLORIDE", "setting": "430 mg/kg, dose level High", "value": 103, "unit": "MEQ/L"}, {"measurement": "CHOLESTEROL", "setting": "430 mg/kg, dose level High", "value": 68, "unit": "mg/dL"}, {"measurement": "CREATININE", "setting": "430 mg/kg, dose level High", "value": 0.18, "unit": "mg/dL"}, {"measurement": "GLUCOSE", "setting": "430 mg/kg, dose level High", "value": 128.67, "unit": "mg/dL"}, {"measurement": "LACTATE DEHYDROGENASE", "setting": "430 mg/kg, dose level High", "value": 323, "unit": "u/L"}, {"measurement": "LIPASE", "setting": "430 mg/kg, dose level High", "value": 10, "unit": "u/L"}, {"measurement": "PHOSPHORUS", "setting": "430 mg/kg, dose level High", "value": 11.43, "unit": "mg/dL"}, {"measurement": "POTASSIUM", "setting": "430 mg/kg, dose level High", "value": 5.73, "unit": "MEQ/L"}, {"measurement": "SODIUM", "setting": "430 mg/kg, dose level High", "value": 144.9, "unit": "MEQ/L"}, {"measurement": "TOTAL BILIRUBIN", "setting": "430 mg/kg, dose level High", "value": 0.17, "unit": "mg/dL"}, {"measurement": "TOTAL PROTEIN", "setting": "430 mg/kg, dose level High", "value": 6.5, "unit": "G/DL"}, {"measurement": "URIC ACID", "setting": "430 mg/kg, dose level High", "value": 1.7, "unit": "mg/dL"}]}
